Like-named read-outs stand apart in the source and are kept apart here.
Tests used:
MCF-7 cell line = test: Test (c): inhibition of growth of the human breast cancer cell line MCF-7 in cell culture; assay type: cell-based; details: MCF7, MCF-7 growth
From the text: (c) An assay which determines the ability of a test compound to inhibit the growth of the human breast cancer cell line MCF-7 in cell culture. The test is similar to that described by Lippman et al. (Cancer Res., 1976, 36, 4595); and […]

L1210 cell line = test: Test (b): inhibition of growth of the leukaemia cell line L1210 in cell culture; assay type: cell-based; details: Mus musculus
From the text: (b) An assay which determines the ability of a test compound to inhibit the growth of the leukaemia cell line L1210 in cell culture. The test is similar to that described in UK Patent Specification No. 2065653B and has been described by Jones et al., J. Med. Chem., 1985, 28, 1468;

thymidylate synthase = target: T1, thymidylate synthase (Mus musculus, UniProt P07607); test: Test (a): in vitro inhibition of the enzyme thymidylate synthase (partially purified from L1210 mouse leukaemia cells); assay type: biochemical
T1 construct: obtained in partially purified form from L1210 mouse leukaemia cells; endogenous in cells; host or cells: L1210 mouse leukaemia cells (enzyme partially purified)
From the text: (a) An in vitro assay which determines the ability of a test compound to inhibit the enzyme thymidylate synthase. Thymidylate synthase was obtained in partially purified form from L1210 mouse leukaemia cells and utilised using the procedures described by Jackman et al. (Cancer Res., 1986, 46, 2810 and Sikora et al., Biochem. Pharmacol. 1988, 37, 4047);

[1] = tested on: human breast, ovarian and liver cancer; details: clinical; cited from earlier work
[2] = cited from earlier work
[3] = Test (a), thymidylate synthase, read-out: IC50

T1 sequence (P07607 whole entry): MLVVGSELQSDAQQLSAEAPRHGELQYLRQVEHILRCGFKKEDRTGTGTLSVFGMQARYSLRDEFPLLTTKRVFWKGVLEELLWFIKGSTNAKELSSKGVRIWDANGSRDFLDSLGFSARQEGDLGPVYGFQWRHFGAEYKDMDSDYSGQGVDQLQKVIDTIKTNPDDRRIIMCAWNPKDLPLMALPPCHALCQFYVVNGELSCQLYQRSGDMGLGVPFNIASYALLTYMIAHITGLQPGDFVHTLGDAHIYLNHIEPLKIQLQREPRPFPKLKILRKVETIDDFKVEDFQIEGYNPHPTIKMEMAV

Structure (SMILES)	IC50 (MCF-7 cell line)	IC50 (L1210 cell line)	IC50 (thymidylate synthase)	IC50 (thymidylate synthase; [3])	activity against human breast, ovarian and liver cancer [1]	toxicity in humans, particularly in relation to the liver and kidney [2]
C#CCN(Cc1ccc2nc(C)[nH]c(=O)c2c1)c1ccc(C(=O)NC(C(=O)NS(=O)(=O)c2ccc(OC)cc2)c2cccc([N+](=O)[O-])c2)cc1 (centres unmarked) [Example 10, N-[p-[N-(2-methyl-4-oxo-3,4-dihydroquinazolin-6-ylmethyl)-N-(prop-2-ynyl)amino]benzoyl]-(3-nitrophenyl)glycine N-(4-methoxyphenylsulphonyl)amide]	~1000 nM	~25000 nM	~10 nM			
C#CCN(Cc1cc2c(=O)[nH]c(C)nc2cc1C)c1ccc(C(=O)NC(CO)c2cccc([N+](=O)[O-])c2)cc1 (centres unmarked) [Example 14, compound no. 2, p-[N-(2,7-dimethyl-4-oxo-3,4-dihydroquinazolin-6-ylmethyl)-N-(prop-2-ynyl)amino]-N-[2-hydroxy-1-(3-nitrophenyl)ethyl]benzamide]	~100 nM	~3400 nM		~20 nM		
C#CCN(Cc1ccc2nc(C)[nH]c(=O)c2c1)c1ccc(C(=O)NC(c2ccccc2)c2ccccc2)cc1 [Example 7, N-diphenylmethyl-p-[N-(2-methyl-4-oxo-3,4-dihydroquinazolin-6-ylmethyl)-N-(prop-2-ynyl)amino]benzamide]	~1500 nM	~7000 nM		~2000 nM		
C#CCN(Cc1ccc2nc(N)[nH]c(=O)c2c1)c1ccc(C(=O)N[C@@H](CCC(=O)O)C(=O)O)cc1 [CB3717]					promising activity	symptoms of toxicity in humans, particularly in relation to the liver and kidney

Reference: patent US5280027A, “Anti-tumor compounds” (Imperial Chemical Industries PLC, priority 1990, dated 1994)
